Tests used:
7 week-old dd mice = test: Acute toxicity test, oral administration to mice; assay type: in vivo; settings: orally administered
alpha-glucosidase = test: Hydrolysis by alpha-glucosidase from pig liver; assay type: biochemical; settings: alpha-glucosidase extracted from pig liver, partially purified
[1] = cited from earlier work
[2] = Water-solubility, light-resistance and stability (general statements); assay type: physicochemical

| SMILES | acute toxicity, in words (7 week-old dd mice) | mortality (7 week-old dd mice; up to 5g, higher dose was difficult) | hydrolysis by alpha-glucosidase (alpha-glucosidase) | solubility in water ([1]; ambient temperature) | solubility in water, in words [1] | stability in an alkaline solution [2] |
| --- | --- | --- | --- | --- | --- | --- |
| C[C@@H]1O[C@@H](OC[C@H]2O[C@@H](Oc3c(-c4ccc(O)c(O)c4)oc4cc(O)cc(O)c4c3=O)[C@H](O)[C@@H](O)[C@@H]2O[C@H]2O[C@H](CO)[C@@H](O)[C@H](O)[C@H]2O)[C@H](O)[C@H](O)[C@H]1O [Example A-2, alpha-glucosyl rutin] | extremely low | the same result | hydrolyzed the alphaglucosyl rutin into rutin and D-glucose |  |  |  |
| C[C@@H]1O[C@@H](OC[C@H]2O[C@@H](Oc3c(-c4ccc(O)c(O)c4)oc4cc(O)cc(O)c4c3=O)[C@H](O)[C@@H](O)[C@@H]2O)[C@H](O)[C@H](O)[C@H]1O [rutin] |  |  |  | about 0.01 w/v % | hardly soluble in water | tends to readily decompose |
